The values below come from patent US7151105B2, “Inhibitors of Hepatitis C virus RNA-dependent RNA polymerase, and compositions and treatments using the same” (Agouron Pharmaceuticals, Inc., priority 2004, dated 2006).

Each structure is given as a SMILES string.

For the assay, the target named is T1, Recombinant HCV polymerase (Hepatitis C virus genotype 1b, UniProt P26663).
T1 construct: Recombinant HCV polymerase was tested for its ability to perform primer/template-directed transcription
T1 sequence (P26663 2420-3010): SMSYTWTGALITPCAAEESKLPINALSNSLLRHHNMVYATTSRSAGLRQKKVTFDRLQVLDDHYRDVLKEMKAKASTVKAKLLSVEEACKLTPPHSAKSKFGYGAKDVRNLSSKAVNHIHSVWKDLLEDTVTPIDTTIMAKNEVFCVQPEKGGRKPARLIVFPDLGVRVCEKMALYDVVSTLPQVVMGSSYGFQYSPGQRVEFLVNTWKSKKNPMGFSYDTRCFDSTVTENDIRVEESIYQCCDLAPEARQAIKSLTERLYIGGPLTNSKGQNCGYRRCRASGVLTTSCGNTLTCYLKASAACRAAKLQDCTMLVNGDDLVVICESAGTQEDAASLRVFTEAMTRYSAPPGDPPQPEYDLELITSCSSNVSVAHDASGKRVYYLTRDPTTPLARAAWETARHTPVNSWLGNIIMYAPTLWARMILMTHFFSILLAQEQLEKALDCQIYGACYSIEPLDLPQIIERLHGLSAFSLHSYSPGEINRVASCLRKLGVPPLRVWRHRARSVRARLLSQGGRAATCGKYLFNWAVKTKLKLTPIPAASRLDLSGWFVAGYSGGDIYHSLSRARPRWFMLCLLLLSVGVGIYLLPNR
As to the kind of experiment: biochemical. As to conditions: inhibition of polymerase-directed transcription; 30 min at 30° C; 30 nM enzyme; cpm data in triplicate. The protocol: The compounds described herein were tested for activity with HCV polymerase. Recombinant HCV polymerase was tested for its ability to perform primer/template-directed transcription in assays that contained 30 mM tris-HCl pH 7.2, 10 mM MgCl2, 20 mM NaCl, 1 mM Dithiothreitol (DTT), 0.05% Tween-20, 1% glycerol, 5 pmoles biotin-dG12 (primer), 0.5 pmoles poly(rC)300 (template), 1 μM GTP, 0.1–0.3 uCi α-^32P-GTP, and 2.5 pmoles (0.15 μg) HCV polymerase protein in a final volume of 75 μL. Reactions were initiated by addition of enzyme and incubated 30 minutes at 30° C. Reactions were stopped by addition of 33 mM EDTA, and polynucleotide products were collected by filtration through Diethylaminoethyl (DE) Filtermat papers (Wallac). Unincorporated triphosphate was removed by washing the filters with 5% dibasic sodium phosphate. The filters were counted in a Packard Tri-Lux Microbeta scintillation counter (Packard Bioscience, Meriden, Conn.). Compounds to be tested were added at various concentrations, e.g., 1 μm to 50 μm, from stocks in 10% DMSO-water (final DMSO is 1% in reaction).
IC50 values were estimated from the primary cpm data (collected in triplicate) using the formula: cpm (I)=cpm (no inhibitor)(1−([I]/([I]+IC50))). […] A percent inhibition value is expressed for a compound where it was impractical to calculate an IC50 value with available data.
Take `CCOc1cc(O)c(CC)cc1CCC1(C2CCCC2)CC(O)=C(Cc2nc3nc(C)cc(C)n3n2)C(=O)O1` (single isomer, unassigned) [A(31), 6-Cyclopentyl-3-[(5,7-dimethyl[1,2,4]triazolo[1,5-a]pyrimidin-2-yl)methyl]-6-[2-(2-ethoxy-5-ethyl-4-hydroxyphenyl)ethyl]-4-hydroxy-5,6-dihydro-2H-pyran-2-one]: the IC50 worked out at 6 nM. For `CCc1cc(CCC2(C3CCCC3)CC(O)=C(Cc3nc4nc(C)cc(C)n4n3)C(=O)O2)ccc1CNC(=O)OC(C)(C)C` (stereo not shown) [A(126)], the IC50 was found to be 6 nM. Next, `CCc1cc(CCC2(C3CCCC3)CC(O)=C(Cc3nc4nc(C)cc(C)n4n3)C(=O)O2)ccc1CO` (racemic) [B(33), 6-Cyclopentyl-3-[(5,7-dimethyl[1,2,4]triazolo[1,5-a]pyrimidin-2-yl)methyl]-6-{2-[3-ethyl-4-(hydroxymethyl)phenyl]ethyl}-4-hydroxy-5,6-dihydro-2H-pyran-2-one]: 28 nM; `CCc1cc(CCC2(C3CCCC3)CC(O)=C(Cc3nc4nc(C)cc(C)n4n3)C(=O)O2)c(C)nc1N` (stereo not shown) [A(124), 6-[2-(6-Amino-5-ethyl-2-methylpyridin-3-yl)ethyl]-6-cyclopentyl-3-[(5,7-dimethyl[1,2,4]triazolo[1,5-a]pyrimidin-2-yl)methyl]-4-hydroxy-5,6-dihydro-2H-pyran-2-one]: 8 nM.

Take `CN(C)c1c(CC2=C(O)CC(CCc3ccc(C(C)(C)C#N)c(F)c3)(C3CCCC3)OC2=O)c(C(F)F)nn1C` (stereo not shown) [Example B(51), 2-{4-[2-(2-Cyclopentyl-5-{[3-(difluoromethyl)-5-(dimethylamino)-1-methyl-1H-pyrazol-4-yl]methyl}-4-hydroxy-6-oxo-3,6-dihydro-2H-pyran-2-yl)ethyl]-2-fluorophenyl}-2-methylpropanenitrile]: the IC50 worked out at 24 nM. On to `Cc1cc(C)n2nc(CC3=C(O)CC(CCc4ccc(O)c(CC(F)(F)F)c4)(C4CCCC4)OC3=O)nc2n1` (single isomer, unassigned) [A(74), 6-Cyclopentyl-3-[(5,7-dimethyl[1,2,4]triazolo[1,5-a]pyrimidin-2-yl)methyl]-4-hydroxy-6-{2-[4-hydroxy-3-(2,2,2-trifluoroethyl)phenyl]ethyl}-5,6-dihydro-2H-pyran-2-one], for which the IC50 stood at 3 nM. Next, `CCS(=O)(=O)N[C@H](C)c1ccc(CCC2(C3CCCC3)CC(O)=C(Cc3nc4nc(C)cc(C)n4n3)C(=O)O2)cc1` (stereo partly drawn) [A(81), N-{(1R)-1-[4-(2-{2-cyclopentyl-5-[(5,7-dimethyl[1,2,4]triazolo[1.5-a]pyrimidin-2-yl)methyl]-4-hydroxy-6-oxo-3,6-dihydro-2H-pyran-2-yl}ethyl)phenyl]ethyl}ethanesulfonamide]: 120 nM. For the compound `Cc1nc(CC2=C(O)CC(CCc3ccc(C(C)(C)C#N)c(F)c3)(C3CCCC3)OC2=O)n(C)n1` (stereo not shown) [A(84), 2-[4-(2-{2-Cyclopentyl-5-[(1,3-dimethyl-1H-1,2,4-triazol-5-yl)methyl]-4-hydroxy-6-oxo-3,6-dihydro-2H-pyran-2-yl}ethyl)-2-fluorophenyl]-2-methylpropanenitrile], the IC50 was 72 nM.

Take `CCc1ccc(CCCOC)c(CCC2(C3CCCC3)CC(O)=C(Cc3nc4nc(C)cc(C)n4n3)C(=O)O2)c1` (stereo not shown) [A(19), 6Cyclopentyl-3-[(5,7-dimethyl[1,2,4]triazolo[1,5-a]pyrimidin-2-yl)methyl]-6-{2-[5-ethyl-2-(3-methoxypropyl)phenyl]ethyl}-4-hydroxy-5,6dihydro-2H-pyran-2-one]: the 50% inhibitory concentration (IC50) is 12 nM. The same measure for `CCn1cc(CC2=C(O)CC(CCc3ccc(C(C)(C)C#N)c(F)c3)(C3CCCC3)OC2=O)c(C)n1` (stereo not shown) [A(95), 2-[4-(2-{2-Cyclopentyl-5-[(1-ethyl-3-methyl-1H-pyrazol-4-yl)methyl]-4-hydroxy-6-oxo-3,6-dihydro-2H-pyran-2-yl}ethyl)-2-fluorophenyl]-2-methylpropanenitrile]: 40 nM; for `Cc1cc(CCC2(C3CCCC3)CC(O)=C(Cc3nc4nc(C)cc(C)n4n3)C(=O)O2)cc(C)n1` (stereo not shown) [A(18), 6-Cyclopentyl-6-[2-(2,6-dimethylpyridin-4-yl)ethyl]-3[(5,7-dimethyl[1,2,4]triazolo[1,5-a]pyrimidin-2-yl)methyl]-4-hydroxy-5,6dihydro-2H-pyran-2-one]: 170 nM.

As to `Cc1cc(C)n2nc(CC3=C(O)CC(CCc4cc(CC(F)(F)F)nc(CC(F)(F)F)c4)(C4CCCC4)OC3=O)nc2n1` (single isomer, unassigned; enantiomer 1) [A(10), Enantiomer 1 of 6-{2-[2,6-Bis(2,2,2-trifluoroethyl)pyridin-4-yl]ethyl}-6-cyclopentyl-3-[(5,7-dimethyl[1,2,4]triazolo[1,5-a]pyrimidin-2-yl)methyl]-4-hydroxy-5,6-dihydro-2H-pyran-2-one], the IC50 was found to be 3 nM.

As to `CCc1cc(CCC2(C3CCCC3)CC(O)=C(Cc3nc4nc(C)cc(C)n4n3)C(=O)O2)ccc1CC#N` (single isomer, unassigned; enantiomer 1) [A(116), Enantiomer 1 of [4-(2-{2-Cyclopentyl-5-[(5,7-dimethyl[1,2,4]triazolo[1,5-a]pyrimidin-2-yl)methyl]-4-hydroxy-6-oxo-3,6dihydro-2H-pyran-2-yl}ethyl)-2-ethylphenyl]acetonitrile], the IC50 was 5 nM. Next, `CCOc1cc(O)c(CC)cc1CCC1(C2CCCC2)CC(O)=C(Cc2nc3nc(C)cc(C)n3n2)C(=O)O1` (single isomer, unassigned) [A(30), 6-Cyclopentyl-3-[(5,7-dimethyl[1,2,4]triazolo[1,5-a]pyrimidin-2-yl)methyl]-[-6–2-(2-ethoxy-5-ethyl-4-hydroxyphenyl)ethyl]-4-hydroxy-5,6-dihydro-2H-pyran-2-one]: 4 nM; `Cc1cc(C)n2nc(CC3=C(O)CC(CCc4ccc([C@@H](C)NS(C)(=O)=O)cc4)(C4CCCC4)OC3=O)nc2n1` (stereo partly shown) [A(83)]: 38 nM; `C[C@@H](NC(=O)OC(C)(C)C)c1ccc(CCC2(C3CCCC3)CC(=O)CC(=O)O2)cc1` (stereo partly shown) [A(90)]: 43000 nM. Next, `CCc1ccnc(CCC2(C3CCCC3)CC(O)=C(Cc3nc4ncc(C)cn4n3)C(=O)O2)c1` (stereo not shown) [A(16), 6-Cyclopentyl-6-[2-(4-ethylpyridin-2-yl)ethyl]-4-hydroxy-3-[(6-methyl[1,2,4]triazolo[1,5-a]pyrimidin-2-yl)methyl]-5,6-dihydro-2H-pyran-2-one]: 55 nM. The same measure for `CCc1cc(CCC2(C3CCCC3)CC(O)=C(Cc3nc4nc(C)cc(C)n4n3)C(=O)O2)ccc1OCCN` (stereo not shown) [A(71)]: 9 nM; for `CCc1cc(CCC2(C3CCCC3)CC(O)=C(Cc3nc4nc(C)cc(C)n4n3)C(=O)O2)ccc1OCCN(C)C(=O)OC(C)(C)C` (stereo not shown) [A(69), tert-Butyl 2-[4-(2-{2-cyclopentyl-5-[(5,7-dimethyl[1,2,4]triazolo[1,5-a]pyrimidin-2-yl)methyl]-4-hydroxy-6-oxo-3,6-dihydro-2H-pyran-2-yl}ethyl)2-ethylphenoxy]ethyl(methyl)carbamate]: 15 nM; for `CS(=O)(=O)c1ccc(CCC2(C3CCCC3)CC(=O)CC(=O)O2)cc1C(F)(F)F` (stereo not shown) [B(3)]: 6400 nM. As to `CCn1nc(CC2=C(O)CC(CCc3ccc(C(C)(C)C#N)c(F)c3)(C3CCCC3)OC2=O)nc1C` (stereo not shown) [Example B(50), 2-[4-(2-{2-Cyclopentyl-5-[(1-ethyl-5-methyl-1H-1,2,4-triazol-3-yl)methyl]-4-hydroxy-6-oxo-3,6dihydro-2H-pyran-2-yl}ethyl)-2-fluorophenyl]-2-methylpropanenitrile], the IC50 was determined as 43 nM. Next, `CCc1cc(CCC2(C3CCCC3)CC(O)=C(Cc3nc4nc(C)cc(C)n4n3)C(=O)O2)ccc1NS(=O)(=O)CC` (stereo not shown) [A(108), N-[4-(2-{2-cyclopentyl-5-[(5,7-dimethyl[1,2,4]triazolo[1,5-a]pyrimidin-2-yl)methyl]-4-hydroxy-6-oxo-3,6-dihydro-2H-pyran-2-yl}ethyl)-2-ethylphenyl]ethanesulfonamide]: 6 nM; `CC(=O)NCc1ccc(CCC2(C3CCCC3)CC(O)=C(Cc3nc4nc(C)cc(C)n4n3)C(=O)O2)cc1F` (stereo not shown) [A(25), N-[4-(2-{2-Cyclopentyl-5-[(5,7-dimethyl[1,2,4]triazolo[1,5-a]pyrimidin-2-yl)methyl]-4-hydroxy-6-oxo-3,6dihydro-2H-pyran-2-yl}ethyl)-2-fluorobenzyl]acetamide]: 100 nM; `Cc1nc(CC2=C(O)CC(CCc3ccc(C(C)(C)C#N)c(Cl)c3)(C3CCCC3)OC2=O)n(C)n1` (stereo not shown) [B(22), 2-[2-Chloro-4-(2-{2-cyclopentyl-5-[(1,3-dimethyl-1H-1,2,4-triazol-5-yl)methyl]-4-hydroxy-6-oxo-3,6-dihydro-2H-pyran-2-yl}ethyl)phenyl]-2-methylpropanenitrile]: 42 nM. Next, `Cc1cnc2nc(CC3=C(O)CC(CCc4ccc(C(C)(C)O)c(Cl)c4)(C4CCCC4)OC3=O)nn2c1` (stereo not shown) [B(36), 6-{2-[3-Chloro-4-(1-hydroxy-1-methylethyl)phenyl]ethyl}-6-cyclopentyl-4-hydroxy-3-[(6-methyl[1,2,4]triazolo[1,5-a]pyrimidin-2-yl)methyl]-5,6-dihydro-2H-pyran-2-one]: 19 nM.

One may read the IC50 as the point on the concentration scale where inhibition reaches its midpoint.
